Measurements reported in patent US10730864B2, “RAD51 inhibitors and uses thereof” (THE REGENTS OF THE UNIVERSITY OF CALIFORNIA, priority 2015, dated 2020).
Entries after “also recorded” stand apart in the source; their conditions may differ. Read-outs that look alike come from different tables or passages of the source.

Experiments:
[1] = test system: human breast cancer cell line Hs578-T; assay: XTT growth inhibition assay, Hs578-T; type: cell-based; conditions: Hs-578T, Mammary Gland Carcinoma
Protocol: (§1) Standard XTT assays with a four-day drug treatment procedure were performed to measure the dose dependent cytotoxicity of IBR analogs in cultured cells. In brief, cells were plated on 96-well dishes one day before the drug treatment, followed by drug treatment on day 2 and XTT assay on day 6 after drug addition by using a commercial cell proliferation kit (Roche Scientific) following the instructions.
(§2) Triplicate sets were measured and compiled for final data presentation.
(§3) The growth inhibition of a panel of cancer cell lines was tested against IBR120 using an XTT assay. These cell lines included human Chronic Myelogenous Leukemia cell line K562, human breast cancer cell lines MCF7, MDA-MB-231, MDA-MB-361, MDA-MB-435, MDA-MB-468, Hs578-T, and T47D, human Osteosarcoma cell line U2OS, human Glioblastoma cell line T98G, human Cervical Cancer cell line HeLa, as well as human mammary gland normal epithelial cell line MCF10A as normal control.

[2] = test system: human mammary gland normal epithelial cell line MCF10A; assay: XTT growth inhibition assay, MCF10A normal control; type: cell-based; conditions: MCF-10A
Protocol: as §1, §2, §3

[3] = test system: human breast cancer cell line MCF7; assay: XTT growth inhibition assay, MCF7; type: cell-based; conditions: MCF7, Mammary Gland Adenocarcinoma
Protocol: as §1, §2, §3

[4] = test system: human breast cancer cell line MDA-MB-361; assay: XTT growth inhibition assay, MDA-MB-361; type: cell-based; conditions: MDA-MB-361, Mammary Gland Adenocarcinoma
Protocol: as §1, §2, §3

[5] = test system: human Osteosarcoma cell line U2OS; assay: XTT growth inhibition assay, U2OS; type: cell-based
Protocol: as §1, §2, §3

[6] = test system: human Cervical Cancer cell line HeLa; assay: XTT growth inhibition assay, HeLa; type: cell-based; conditions: Cervix Adenocarcinoma
Protocol: as §1, §2, §3

[7] = test system: triple-negative human breast cancer cell line MDA-MB-468; assay: XTT cell killing / growth inhibition assay, MDA-MB-468; type: cell-based; conditions: for IC50: Homo sapiens
Protocol: as §1, §2
To test the possibility of inhibiting triple-negative breast cancer, the newly synthesized IBR2 analogues IBR101-124 were screened of their growth inhibition abilities using an XTT assay.

RAD51 = biological target: T1, RAD51 (Homo sapiens, UniProt Q06609); assay: Multimer formation assay (gel filtration); type: biochemical; conditions: RAD51:IBR120 1:10 molar ratio, gel filtration profile
T1 sequence (Q06609 1-339): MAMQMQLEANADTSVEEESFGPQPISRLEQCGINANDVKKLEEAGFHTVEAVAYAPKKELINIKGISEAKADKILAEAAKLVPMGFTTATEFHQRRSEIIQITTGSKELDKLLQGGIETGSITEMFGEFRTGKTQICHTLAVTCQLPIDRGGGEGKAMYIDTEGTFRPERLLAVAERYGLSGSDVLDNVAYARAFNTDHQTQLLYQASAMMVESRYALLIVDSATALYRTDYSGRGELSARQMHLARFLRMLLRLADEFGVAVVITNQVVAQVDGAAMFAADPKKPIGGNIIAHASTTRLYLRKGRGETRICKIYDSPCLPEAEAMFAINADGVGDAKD
Protocol: A mixture of RAD51 (3.2 μg) and IBR120 (1:10 molar ratio) was incubated for 15 min at 37° C., supplemented with buffer (50 mM triethanolamine-HCl [pH7.5], 0.5 mM Mg(OAc)2, 1 mM DTT, 2 mM ATP and 100 μg/ml BSA, total volume 20 μl) and incubated for 15 min. The mixture was loaded onto a 2.4 ml Superdex 200 PC 3.2/30 column (Pharmacia) equilibrated with the same buffer as previously described (Zhu et al., 2013, EMBO Mol. Med. 5:1-13; Pierce et al., 1999, Genes Dev. 13:2633-2638). Fractions (50 μl) were collected and 0.5 μl of each fraction was blotted onto PVDF membrane. RAD51 was detected using anti-RAD51 antibody (mAb 14B4, GeneTex)
On the RAD51 core domain, a hydrophobic pocket formed between β-strand B3 and α-helix A4 of RAD51 is critical for RAD51 multimerization (Pellegrini et al., 2002, Nature 420:287-293). It was hypothesized that IBR compounds should be able to inhibit RAD51 multimerization. In order to test this hypothesis, the gel filtration profile of RAD51 multimerization in the presence of IBR120 or vehicle (DMSO) alone were compared.

[8] = test system: human Chronic Myelogenous Leukemia cell line K562; assay: XTT growth inhibition assay, K562; type: cell-based
Protocol: as §1, §2, §3

[9] = test system: human breast cancer cell line T47D; assay: XTT growth inhibition assay, T47D; type: cell-based; conditions: Mammary Gland Ductal Carcinoma
Protocol: as §1, §2, §3

[10] = test system: panel of cancer cell lines; assay: XTT growth inhibition assay, panel of cancer cell lines (summary); type: cell-based, human
Protocol: as §1, §2, §3

[11] = test system: human breast cancer cell line MDA-MB-435; assay: XTT growth inhibition assay, MDA-MB-435; type: cell-based; conditions: MDA-MB-435, Melanoma/Mammary Gland Ductal Carcinoma
Protocol: as §1, §2, §3

[12] = test system: human Glioblastoma cell line T98G; assay: XTT growth inhibition assay, T98G; type: cell-based; conditions: Glioblastoma Multiforme
Protocol: as §1, §2, §3

[13] = test system: HR repair in HeLa-DR-GFP cells; assay: HR assay (I-SceI inducible gene conversion, DR-GFP); type: cell-based, human; conditions: 10 or 20 μM, 24 hours, GFP positive cells by flow cytometry
Protocol: HR frequency was measured by two-colour fluorescence flow cytometric analysis using HeLa-DR-GFP cells. Fifty thousand events were analyzed for each experiment. Cells were treated with DMSO (mock), 10 or 20 μM of IBR2 or IBR120 as indicated for 24 hours after transient transfection with I-SceI expression vector pCABSce for 24 hours. HR frequencies were indicated by GFP positive cell percentages. […] DMSO. […] DMSO. […] DMSO. […] DMSO. […] GFP positive cell percentages by indicated treatments obtained from three independent experiments are summarized as means±SD.
Using previously described methods (Zhu et al., 2013, EMBO Mol. Med. 5:1-13; Pierce et al., 1999, Genes Dev. 13:2633-2638), HeLa cells stably expressing DR-GFP were transfected with the I-Sce expression vector pCBASce and treated with compounds or DMSO. Cells were then trypsinized and subjected to flow cytometry.
Inhibition of RAD51 function will lead to failure in HR repair. […] Upon I-SceI expression by transient transfection for 24 hours to induce DSBs, cells were treated with DMSO, 10 or 20 μM of IBR120 or IBR2 for another 24 hours and the GFP positive population resulting from successful recombination was measured by flow cytometry.

[14] = test system: human breast cancer cell line MDA-MB-231; assay: XTT growth inhibition assay, MDA-MB-231; type: cell-based; conditions: MDA-MB-231, Mammary Gland Adenocarcinoma
Protocol: as §1, §2, §3

For `O=S(=O)(Cc1ccccc1)N1Cc2ccccc2[C@@H]1c1c[nH]c2ccccc12` [IBR120, (R)-3-(2-(benzylsulfonyl)isoindolin-1-yl)-1H-indole], the IC50 [1] was 4.9 ± 1 µM, the IC50 [2] was greater than 30 µM and the IC50 [3] was 3.1 ± 0.2 µM. It also gave an IC50 [4] of 4.5 ± 0.7 µM, an IC50 [5] of 4.7 ± 0.5 µM and an IC50 [6] of 3.6 ± 0.6 µM. For the same compound, the IC50 ([7]; 96 h, MDA-MB-468, XTT assay, four-day drug treatment, read-out: IC50) was 3.1 µM, the IC50 ([7]; MDA-MB-468, growth inhibition, raw dataset for SAR analysis, read-out: pIC50 (converted)) was 3.24 µM and the IC50 ([7]; MDA-MB-468, Mammary Gland Adenocarcinoma (Table 3, with spread), read-out: IC50) was 3.1 ± 0.4 µM. For the same compound, the “IC50 compared with that of the parental compound IBR2 (in words)” value ([7]; MDA-MB-468) was “significantly lower”, the “RAD51 multimerization (in words)” value (RAD51) was “capable of disrupting RAD51 multimerization; also recorded: can inhibit RAD51 multimerization; also recorded: can disrupt RAD51 multimer formation in vitro; also recorded: inhibits RAD51 multimerization” and the IC50 [8] was 3.6 ± 0.7 µM. The IC50 [9] was 6.3 ± 1.5 µM, the IC50 ([10]; Homo sapiens, XTT assay, read-out: IC50 values in most tested cancer cell lines) was 3 to 5 µM and the “difference between the IC50 values in normal and cancer cells” value ([10]; MCF10A versus cancer cell lines) was “approximately 10 fold”. For the same compound, the IC50 [11] was 4 ± 0.7 µM, the IC50 [12] was 9.5 ± 0.9 µM and the “HR frequency / HR repair (in words)” value [13] was “impairing homologous recombination repair; also recorded: significantly reduced; also recorded: greater depression of HR repair activity; also recorded: inhibit HR repair in cells; also recorded: dose dependently inhibits HR repair”. For the same compound, the IC50 [14] was 3.5 ± 0.4 µM.
